Test results as given in US12331054B2, “Perk inhibiting imidazolopyrazine compounds” (HiberCell, Inc., priority 2019, dated 2025).

Tests used:
[1] = target: Recombinant human EIF2AK3 (PERK) catalytic domain (amino acids 536-1116) (Homo sapiens (Human), UniProt Q9NZJ5); assay: PERK In Vitro Activity Assay (isolated), TR-FRET kinase assay; settings: isolated PERK enzyme, 1.5 μM ATP, read-out: Biochemical IC50
In short: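 Recombinant PERK catalytic domain was incubated with 100–200 nM GFP-eIF2a substrate in 50 mM HEPES pH 7.5, 10 mM MgCl2, 1.0 mM EGTA and 0.01% Brij-35 for 45 min at room temperature. After a 10 mM EDTA stop, 2 nM Tb-anti-phospho-eIF2a was added for 90 min, and IC50 was fitted from TR-FRET ratios by 4-parameter logistic regression.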

[2] = system: eIF2α in HEK293-EGFP-eIF2α cells; assay: PERK Cellular Assay (HEK293-EGFP-eIF2α cells, tunicamycin-induced ER stress, TR-FRET); assay type: cell-based; settings: tunicamycin 2 hours
In short: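 Cells pre-incubated with inhibitor 30 min at 37 °C, then ER stress induced with […] tunicamycin for 2 h. TR-FRET read on lysates; ratio normalized to DMSO control as percent inhibition over a 10-point, 3-fold dilution series; IC50 from 4-parameter logistic fit.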

Sequence of Recombinant human EIF2AK3 (PERK) catalytic domain (amino acids 536-1116) (Q9NZJ5 536-1116): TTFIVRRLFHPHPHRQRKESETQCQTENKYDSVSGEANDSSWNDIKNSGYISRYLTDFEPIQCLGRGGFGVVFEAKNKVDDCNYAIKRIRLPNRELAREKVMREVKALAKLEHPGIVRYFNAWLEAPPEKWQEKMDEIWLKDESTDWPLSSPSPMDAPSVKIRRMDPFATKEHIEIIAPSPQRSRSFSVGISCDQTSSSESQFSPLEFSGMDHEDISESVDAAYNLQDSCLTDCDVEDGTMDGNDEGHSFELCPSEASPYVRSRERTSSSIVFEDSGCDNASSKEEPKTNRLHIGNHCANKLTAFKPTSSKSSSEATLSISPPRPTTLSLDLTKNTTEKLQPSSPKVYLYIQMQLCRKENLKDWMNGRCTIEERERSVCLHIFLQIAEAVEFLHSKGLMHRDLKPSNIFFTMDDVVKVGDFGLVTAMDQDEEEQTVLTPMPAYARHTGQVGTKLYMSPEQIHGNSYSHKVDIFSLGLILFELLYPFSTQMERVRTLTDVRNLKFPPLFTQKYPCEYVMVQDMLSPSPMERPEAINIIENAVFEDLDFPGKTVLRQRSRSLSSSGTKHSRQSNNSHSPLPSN

[2H]C([2H])([2H])c1nc(-c2ccc(NC(=O)C(O)c3cccc(Cl)c3)c(F)c2F)c2c(N)ncc(C(F)(F)F)n12 (stereo not shown) [Example 142, N-[4-[8-amino-3-(trideuteriomethyl)-5-(trifluoromethyl)imidazo[1,5-a]pyrazin-1-yl]-2,3-difluoro-phenyl]-2-(3-chlorophenyl)-2-hydroxy-acetamide]
IC50 [1]: 1 to 25 nM | IC50 [2]: 1 to 25 nM

[2H]C([2H])([2H])c1nc(-c2ccc(NC(=O)C(O)c3cccc(Cl)c3)c(F)c2F)c2c(N)ncc(C(F)(F)F)n12 (stereo not shown) [Example 143, N-[4-[8-amino-3-(trideuteriomethyl)-5-(trifluoromethyl)imidazo[1,5-a]pyrazin-1-yl]-2,3-difluoro-phenyl]-2-(3-chlorophenyl)-2-hydroxy-acetamide]
IC50 [1]: 251 to 500 nM | IC50 [2]: 251 to 500 nM

[2H]C([2H])([2H])c1nc(-c2ccc(NC(=O)C(O)c3cccc(Cl)c3)c(F)c2F)c2c(N)ncc(Cl)n12 (stereo not shown) [Example 144, N-[4-[8-amino-5-chloro-3-(trideuteriomethyl)imidazo[1,5-a]pyrazin-1-yl]-2,3-difluoro-phenyl]-2-(3-chlorophenyl)-2-hydroxy-acetamide]
IC50 [1]: 1 to 25 nM | IC50 [2]: 51 to 100 nM

[2H]C([2H])([2H])c1nc(-c2ccc(NC(=O)C(O)c3cccc(Cl)c3)c(F)c2F)c2c(N)ncc(Cl)n12 (stereo not shown) [Example 145, N-[4-[8-amino-5-chloro-3-(trideuteriomethyl)imidazo[1,5-a]pyrazin-1-yl]-2,3-difluoro-phenyl]-2-(3-chlorophenyl)-2-hydroxy-acetamide]
IC50 [1]: 1 to 25 nM | IC50 [2]: 1 to 25 nM

[2H]C([2H])([2H])c1nc(-c2ccc(NC(=O)C(O)c3cccc(C(F)(F)F)c3)c(F)c2F)c2c(N)ncc(C)n12 (stereo not shown) [Example 146, N-[4-[8-amino-5-methyl-3-(trideuteriomethyl)imidazo[1,5-a]pyrazin-1-yl]-2,3-difluoro-phenyl]-2-hydroxy-2-[3-(trifluoromethyl)phenyl]acetamide]
IC50 [1]: 1 to 25 nM | IC50 [2]: 1 to 25 nM

[2H]C([2H])([2H])c1nc(-c2ccc(NC(=O)C(O)c3cccc(C(F)(F)F)c3)c(F)c2F)c2c(N)ncc(C)n12 (stereo not shown) [Example 147, N-[4-[8-amino-5-methyl-3-(trideuteriomethyl)imidazo[1,5-a]pyrazin-1-yl]-2,3-difluoro-phenyl]-2-hydroxy-2-[3-(trifluoromethyl)phenyl]acetamide]
IC50 [1]: 26 to 50 nM | IC50 [2]: 101 to 250 nM

[2H]C([2H])([2H])c1nc(-c2ccc(NC(=O)C(O)c3cccc(C(F)(F)F)c3)c(F)c2F)c2c(N)ncc(C(F)(F)F)n12 (stereo not shown) [Example 148, N-[4-[8-amino-3-(trideuteriomethyl)-5-(trifluoromethyl)imidazo[1,5-a]pyrazin-1-yl]-2,3-difluoro-phenyl]-2-hydroxy-2-[3-(trifluoromethyl)phenyl]acetamide]
IC50 [1]: 1 to 25 nM | IC50 [2]: 1 to 25 nM

[2H]C([2H])([2H])c1nc(-c2ccc(NC(=O)C(O)c3cccc(C(F)(F)F)c3)c(F)c2F)c2c(N)ncc(C(F)(F)F)n12 (stereo not shown) [Example 149, N-[4-[8-amino-3-(trideuteriomethyl)-5-(trifluoromethyl)imidazo[1,5-a]pyrazin-1-yl]-2,3-difluoro-phenyl]-2-hydroxy-2-[3-(trifluoromethyl)phenyl]acetamide]
IC50 [1]: 501 to 1000 nM | IC50 [2]: 251 to 500 nM

[2H]C([2H])([2H])c1nc(-c2ccc(NC(=O)C(O)c3cccc(C(F)(F)F)c3)c(F)c2F)c2c(N)nc(C)cn12 (stereo not shown) [Example 150, N-[4-[8-amino-6-methyl-3-(trideuteriomethyl)imidazo[1,5-a]pyrazin-1-yl]-2,3-difluoro-phenyl]-2-hydroxy-2-[3-(trifluoromethyl)phenyl]acetamide]
IC50 [1]: 1 to 25 nM | IC50 [2]: 26 to 50 nM

[2H]C([2H])([2H])c1nc(-c2ccc(NC(=O)C(O)c3cccc(C(F)(F)F)c3)c(F)c2F)c2c(N)nc(C)cn12 (stereo not shown) [Example 151, N-[4-[8-amino-6-methyl-3-(trideuteriomethyl)imidazo[1,5-a]pyrazin-1-yl]-2,3-difluoro-phenyl]-2-hydroxy-2-[3-(trifluoromethyl)phenyl]acetamide]
IC50 [1]: 51 to 100 nM | IC50 [2]: 251 to 500 nM

[2H]C([2H])([2H])c1nc(-c2ccc(NC(=O)C(O)c3cccc(C(F)(F)F)c3)c(F)c2F)c2c(N)ncc(Cl)n12 (stereo not shown) [Example 152, N-[4-[8-amino-5-chloro-3-(trideuteriomethyl)imidazo[1,5-a]pyrazin-1-yl]-2,3-difluoro-phenyl]-2-hydroxy-2-[3-(trifluoromethyl)phenyl]acetamide]
IC50 [1]: 1 to 25 nM | IC50 [2]: 1 to 25 nM

[2H]C([2H])([2H])c1nc(-c2ccc(NC(=O)C(O)c3cccc(C(F)(F)F)c3)c(F)c2F)c2c(N)ncc(Cl)n12 (stereo not shown) [Example 153, N-[4-[8-amino-5-chloro-3-(trideuteriomethyl)imidazo[1,5-a]pyrazin-1-yl]-2,3-difluoro-phenyl]-2-hydroxy-2-[3-(trifluoromethyl)phenyl]acetamide]
IC50 [1]: 26 to 50 nM | IC50 [2]: 101 to 250 nM

[2H]C([2H])([2H])c1nc(-c2ccc(NC(=O)C(O)c3cc(F)cc(F)c3)c(F)c2F)c2c(N)ncc(C)n12 (stereo not shown) [Example 154, N-[4-[8-amino-5-methyl-3-(trideuteriomethyl)imidazo[1,5-a]pyrazin-1-yl]-2,3-difluoro-phenyl]-2-(3,5-difluorophenyl)-2-hydroxy-acetamide]
IC50 [1]: 1 to 25 nM | IC50 [2]: 1 to 25 nM

[2H]C([2H])([2H])c1nc(-c2ccc(NC(=O)C(O)c3cc(F)cc(F)c3)c(F)c2F)c2c(N)ncc(C)n12 (stereo not shown) [Example 155, N-[4-[8-amino-5-methyl-3-(trideuteriomethyl)imidazo[1,5-a]pyrazin-1-yl]-2,3-difluoro-phenyl]-2-(3,5-difluorophenyl)-2-hydroxy-acetamide]
IC50 [1]: 1 to 25 nM | IC50 [2]: 51 to 100 nM

[2H]C([2H])([2H])c1nc(-c2ccc(NC(=O)C(O)c3cc(F)cc(F)c3)c(F)c2F)c2c(N)ncc(Cl)n12 (stereo not shown) [Example 156, N-[4-[8-amino-5-chloro-3-(trideuteriomethyl)imidazo[1,5-a]pyrazin-1-yl]-2,3-difluoro-phenyl]-2-(3,5-difluorophenyl)-2-hydroxy-acetamide]
IC50 [1]: 1 to 25 nM | IC50 [2]: 1 to 25 nM

[2H]C([2H])([2H])c1nc(-c2ccc(NC(=O)C(O)c3cc(F)cc(F)c3)c(F)c2F)c2c(N)ncc(Cl)n12 (stereo not shown) [Example 157, N-[4-[8-amino-5-chloro-3-(trideuteriomethyl)imidazo[1,5-a]pyrazin-1-yl]-2,3-difluoro-phenyl]-2-(3,5-difluorophenyl)-2-hydroxy-acetamide]
IC50 [1]: 1 to 25 nM | IC50 [2]: 51 to 100 nM

[2H]C([2H])([2H])c1nc(-c2ccc(NC(=O)C(O)c3cc(F)cc(F)c3)c(F)c2F)c2c(N)ncc(C(F)(F)F)n12 (stereo not shown) [Example 158, N-[4-[8-amino-3-(trideuteriomethyl)-5-(trifluoromethyl)imidazo[1,5-a]pyrazin-1-yl]-2,3-difluoro-phenyl]-2-(3,5-difluorophenyl)-2-hydroxy-acetamide]
IC50 [1]: 1 to 25 nM | IC50 [2]: 1 to 25 nM

[2H]C([2H])([2H])c1nc(-c2ccc(NC(=O)C(O)c3cc(F)cc(F)c3)c(F)c2F)c2c(N)ncc(C(F)(F)F)n12 (stereo not shown) [Example 159, N-[4-[8-amino-3-(trideuteriomethyl)-5-(trifluoromethyl)imidazo[1,5-a]pyrazin-1-yl]-2,3-difluoro-phenyl]-2-(3,5-difluorophenyl)-2-hydroxy-acetamide]
IC50 [1]: 51 to 100 nM | IC50 [2]: 251 to 500 nM

[2H]C([2H])([2H])c1nc(-c2ccc(NC(=O)C(O)c3cc(F)cc(C(F)(F)F)c3)c(F)c2F)c2c(N)ncc(C)n12 (stereo not shown) [Example 160, N-[4-[8-amino-5-methyl-3-(trideuteriomethyl)imidazo[1,5-a]pyrazin-1-yl]-2,3-difluoro-phenyl]-2-[3-fluoro-5-(trifluoromethyl)phenyl]-2-hydroxy-acetamide]
IC50 [1]: 1 to 25 nM | IC50 [2]: 1 to 25 nM

[2H]C([2H])([2H])c1nc(-c2ccc(NC(=O)C(O)c3cc(F)cc(C(F)(F)F)c3)c(F)c2F)c2c(N)ncc(C)n12 (stereo not shown) [Example 161, N-[4-[8-amino-5-methyl-3-(trideuteriomethyl)imidazo[1,5-a]pyrazin-1-yl]-2,3-difluoro-phenyl]-2-[3-fluoro-5-(trifluoromethyl)phenyl]-2-hydroxy-acetamide]
IC50 [1]: 1 to 25 nM | IC50 [2]: 101 to 250 nM

[2H]C([2H])([2H])c1nc(-c2ccc(NC(=O)C(O)c3cc(F)cc(C(F)(F)F)c3)c(F)c2F)c2c(N)ncc(C(F)(F)F)n12 (stereo not shown) [Example 162, N-[4-[8-amino-3-(trideuteriomethyl)-5-(trifluoromethyl)imidazo[1,5-a]pyrazin-1-yl]-2,3-difluoro-phenyl]-2-[3-fluoro-5-(trifluoromethyl)phenyl]-2-hydroxy-acetamide]
IC50 [1]: 1 to 25 nM | IC50 [2]: 1 to 25 nM

[2H]C([2H])([2H])c1nc(-c2ccc(NC(=O)C(O)c3cc(F)cc(C(F)(F)F)c3)c(F)c2F)c2c(N)ncc(C(F)(F)F)n12 (stereo not shown) [Example 163, N-[4-[8-amino-3-(trideuteriomethyl)-5-(trifluoromethyl)imidazo[1,5-a]pyrazin-1-yl]-2,3-difluoro-phenyl]-2-[3-fluoro-5-(trifluoromethyl)phenyl]-2-hydroxy-acetamide]
IC50 [1]: 251 to 500 nM | IC50 [2]: 251 to 500 nM

[2H]C([2H])([2H])c1nc(-c2ccc(NC(=O)C(O)c3cc(F)cc(C(F)(F)F)c3)c(F)c2F)c2c(N)ncc(Cl)n12 (stereo not shown) [Example 164, N-[4-[8-amino-5-chloro-3-(trideuteriomethyl)imidazo[1,5-a]pyrazin-1-yl]-2,3-difluoro-phenyl]-2-[3-fluoro-5-(trifluoromethyl)phenyl]-2-hydroxy-acetamide]
IC50 [1]: 1 to 25 nM | IC50 [2]: 1 to 25 nM
